The text below walks through data of US11485742B2, “2-azaspiro[3.4]octane derivatives as M4 agonists” (NOVARTIS AG, priority 2019, dated 2022).

This assay concerns the target T1, human cloned CHRM5 receptor (Homo sapiens, UniProt P08912).
T1 construct: expressed in transfected cells; host or cells: CHO (M5_CHO)
T1 sequence (P08912 1-532): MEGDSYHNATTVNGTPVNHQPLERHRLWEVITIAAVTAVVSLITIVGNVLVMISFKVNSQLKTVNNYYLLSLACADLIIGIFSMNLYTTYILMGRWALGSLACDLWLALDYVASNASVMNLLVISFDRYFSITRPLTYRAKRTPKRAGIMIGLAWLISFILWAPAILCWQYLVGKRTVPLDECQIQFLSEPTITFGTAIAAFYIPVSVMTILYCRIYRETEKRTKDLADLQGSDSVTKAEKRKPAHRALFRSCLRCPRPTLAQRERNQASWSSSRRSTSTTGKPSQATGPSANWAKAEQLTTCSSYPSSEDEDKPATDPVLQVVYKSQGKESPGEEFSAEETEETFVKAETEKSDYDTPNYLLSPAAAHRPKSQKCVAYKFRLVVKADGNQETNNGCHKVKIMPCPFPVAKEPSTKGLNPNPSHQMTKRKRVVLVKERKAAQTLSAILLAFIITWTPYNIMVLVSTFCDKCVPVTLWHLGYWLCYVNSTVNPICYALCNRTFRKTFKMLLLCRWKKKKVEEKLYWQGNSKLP
Briefly: CHRM5 Ca++ Flux Assay (M5_CHO cells, agonist mode). In kind it is cell-based. To be noted: for Emax: Percent Activity (PA) measured to EC100 of Carbachol, read-out: M5 FDSS PA %; for EC50: agonist mode, geometric mean if tested more than once, read-out: M5 FDSS EC50. An outline of the steps: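 Agonist-mode calcium mobilisation: compounds, 11 concentrations in triplicate, applied to stable M3_CHO or M5_CHO cells loaded with Ca++ dye, fluorescence followed 3 min. Efficacy expressed against carbachol EC100; EC curves by four-parameter nonlinear regression, geometric mean across independent runs.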

As for `COc1cc(F)ccc1C1CCN([C@@H]2COC3(C2)CN(c2nnco2)C3)CC1` [Example 1S, (S)-7-(4-(4-fluoro-2-methoxyphenyl)piperidin-1-yl)-2-(1,3,4-oxadiazol-2-yl)-5-oxa-2-azaspiro[3.4]octane], the Emax came out at 0% and the EC50 was > 25 µM.
The corresponding values for `Cc1nnc(COc2ccc(F)cc2C2CCN([C@@H]3COC4(C3)CN(c3nnco3)C4)CC2)o1` [Example 2F, (S)-7-(4-(5-fluoro-2-((5-methyl-1,3,4-oxadiazol-2-yl)methoxy)phenyl)piperidin-1-yl)-2-(1,3,4-oxadiazol-2-yl)-5-oxa-2-azaspiro[3.4]octane] are 30% and 3.65 µM.
Consider `OC1(COc2ccc(F)cc2C2CCN([C@@H]3COC4(C3)CN(c3nnco3)C4)CC2)COC1` [Example 2U, (S)-3-((2-(1-(2-(1,3,4-oxadiazol-2-yl)-5-oxa-2-azaspiro[3.4]octan-7-yl)piperidin-4-yl)-4-fluorophenoxy)methyl)oxetan-3-ol], for which the Emax stood at 0% and the EC50 was > 25 µM.
`Fc1ccc(OC[C@H]2CCCO2)c(C2CCN([C@@H]3COC4(C3)CN(c3nnco3)C4)CC2)c1` [Example 2M, (S)-7-(4-(5-fluoro-2-(((R)-tetrahydrofuran-2-yl)methoxy)phenyl)piperidin-1-yl)-2-(1,3,4-oxadiazol-2-yl)-5-oxa-2-azaspiro[3.4]octane]: the Emax turned out to be 0% and the 50% effective concentration (EC50) is > 25 µM.
On to `Fc1ccc(OC[C@H]2CCOC2)c(C2CCN([C@@H]3COC4(C3)CN(c3nncs3)C4)CC2)c1` [Example 5X, (S)-7-(4-(5-fluoro-2-(((S)-tetrahydrofuran-3-yl)methoxy)phenyl)piperidin-1-yl)-2-(1,3,4-thiadiazol-2-yl)-5-oxa-2-azaspiro[3.4]octane], for which the Emax stood at 0% and the EC50 is > 25 µM.
Take `COCCOc1ccc(F)cc1C1CCN([C@@H]2COC3(C2)CN(c2nnco2)C3)CC1` [Example 1L, (S)-7-(4-(5-fluoro-2-(2-methoxyethoxy)phenyl)piperidin-1-yl)-2-(1,3,4-oxadiazol-2-yl)-5-oxa-2-azaspiro[3.4]octane]: the Emax was 0% and the EC50 is > 25 µM.
As for `Fc1ccc(OC2CC3(COC3)C2)c(C2CCN([C@@H]3COC4(C3)CN(c3nnco3)C4)CC2)c1` [Example 2L, (S)-7-(4-(2-((2-oxaspiro[3.3]heptan-6-yl)oxy)-5-fluorophenyl)piperidin-1-yl)-2-(1,3,4-oxadiazol-2-yl)-5-oxa-2-azaspiro[3.4]octane], the Emax was found to be 0% and the EC50 was > 25 µM.
On to `Fc1ccc(OC2CC3(COC3)C2)c(C2CCN([C@@H]3COC4(C3)CN(c3ncon3)C4)CC2)c1` [Example 6C, (S)-7-(4-(2-((2-oxaspiro[3.3]heptan-6-yl)oxy)-5-fluorophenyl)piperidin-1-yl)-2-(1,2,4-oxadiazol-3-yl)-5-oxa-2-azaspiro[3.4]octane], for which the Emax came out at 0% and the EC50 is > 25 µM.
As for `Fc1ccc(OCC2COC2)c(C2CCN([C@@H]3COC4(C3)CN(c3nnco3)C4)CC2)c1` [Example 2H, (S)-7-(4-(5-fluoro-2-(oxetan-3-ylmethoxy)phenyl)piperidin-1-yl)-2-(1,3,4-oxadiazol-2-yl)-5-oxa-2-azaspiro[3.4]octane], the Emax came out at 0% and the EC50 was > 25 µM.
Turning to `CC1(COc2ccc(F)cc2C2CCN([C@@H]3COC4(C3)CN(c3nncs3)C4)CC2)COC1` [Example 2B, (S)-7-(4-(5-fluoro-2-((3-methyloxetan-3-yl)methoxy)phenyl)piperidin-1-yl)-2-(1,3,4-thiadiazol-2-yl)-5-oxa-2-azaspiro[3.4]octane], the Emax worked out at 0% and the half-maximal effective concentration (EC50) is > 25 µM.
As to `Fc1ccc(OCC2(F)COC2)c(C2CCN([C@@H]3COC4(C3)CN(c3nnco3)C4)CC2)c1` [Example 2J, (S)-7-(4-(5-fluoro-2-((3-fluorooxetan-3-yl)methoxy)phenyl)piperidin-1-yl)-2-(1,3,4-oxadiazol-2-yl)-5-oxa-2-azaspiro[3.4]octane], the Emax was determined as 0% and the concentration for a half-maximal effect (EC50) is > 25 µM.

For orientation: EC50 means the midpoint of the concentration-response curve.
